# Test results as given in US20100004171A1, “Therapeutic Methods for Neuropathic Pain” (priority 2006, published 2010).
# What was measured:
# [1] = system: tactile allodynia in allodynic rats; assay: Tactile allodynia test (von Frey filaments, paw withdrawal threshold) in CCI (Bennett model) rats; type: in vivo, rat
# Source text: Bennett Model: In this model, approximately 0.8 cm of the left sciatic nerve was exposed and freed with sharpened scissors at middle-thigh level as described by Bennett and Xie.^[76] Four ligatures were placed loosely around the sciatic nerve with 4-0 chromic catgut, with 1 mm space between the ties, which compresses the nerve but epineural blood circulation is preserved. The tissue and skin were closed in layers. […] Most allodynia was seen during the time period of 7-14 days after the surgery.
# Intrathecal catheter installation: A PE10 catheter, stretched to a somewhat thinner diameter in the distal part, was introduced into the spinal canal (subarachnoid space) via a 21 G (gauge) cannula between the L5 and L6 lamina and advanced to the lumbar enlargement in rats. The proximal part was tunneled under the skin and led out on the upper dorsal region. The location of the catheter was verified by the injection of 6 μl (50 mg/ml) xylocalne, such that a transient, flaccid paralysis of the legs was produced, and by X-ray after administration of 10 μl iodine contrast medium (Astra, Sweden). The catheter could be kept for up to two weeks in animals.^[79]
# The maximum volume injected at any one time was 10 μl.^[79]
# Tactile allodynia test: In a transparent glass chamber (20×20 cm) with a mesh net floor, each animal was subjected to the tactile allodynia test. A positive response is when an innocuous tactile stimulus induces a brief paw withdrawal away from the stimulation, similar to a paw withdrawal due to heat. A set of von Frey filaments from 0.01 to 28 g (Stoelting Co., Wood Dale, Ill.) were applied to the mid-paw of the allodynic rats at 1 gram, and then progressing up or down. The filament was pressed against the plantar surface for 1 to 2 seconds until it bent. Subsequent applications were made with a higher or lower von Frey filament depending on the animal response. The testing always began with normal paws. If a filament induced a brief paw withdrawal of a paw without bending in three out of five tests, the size of the filament was recorded as eliciting a positive withdrawal threshold.^[80] Allodynia was considered to be present when a withdrawal threshold was evoked by a filament corresponding to 8 grams or less.
# In rats with tactile allodynia (a withdrawal threshold with a filament below 8 g), an intrathecal catheter (PE 10) was installed and linked to an osmotic pump (Alzet) in a 37° C. water bath. Following a bolus injection of SCP-1 (30 nmol/kg, 10 μl), agrin siRNA (100 nM) was intrathecally administered continuously by the pump at a rate of 5 μl/1 hour for 4 hr. The animals were subjected to von Frey filament test every 15 min for 4 hr to determine whether the effects of SCP-1 on allodynia suppression are blocked by agrin siRNA. A control siRNA (nFsiRNA) was applied in the same way. The behavioral data was analyzed for agrin effects. Immediately after behavioral experiments, the animals were sacrificed and subjected to protein extraction of lumbar spinal cord, followed by Western-blot analysis as described above.
# A blind test was designed for intrathecal drug evaluations. Five days after CCI, rats were subjected to tactile allodynia tests with von Frey filaments. If a filament corresponding to 8 grams or less evoked a withdrawal response on the rat paw (at least 3 responses out of 5 stimuli), the value was designated as the allodynia threshold. […] Either a drug (100 nmol in 10 μl saline) or vehicle (only 10 μl saline) was pre-warmed and intrathecally injected into the allodynic rats. Then the rats were assayed for changes in allodynic and hyperalgesic behavior, agrin gene expression, and agrin protein changes. In addition, distribution and amount of agrin in the dorsal horn were visualized using immunostaining of L5 as reported above in Example 7.
# [2] = system: tactile allodynia in allodynic rats; assay: as above; type: in vivo, rat; conditions: for effect on tactile allodynia: day 7 after injury
smiles,measurement,setting,value
O=C(CN1C(=O)c2ccccc2S1(=O)=O)Nc1ccc(O)cc1 [SCP-1],time to normalized withdrawal threshold,[1]; Example 9: SCP-1 alone,about one hour after injection
same,effect on withdrawal threshold,"[1]; Example 9: injected 7 days after CCI, SCP-1 alone, up to 4 h",normalized the withdrawal threshold
same,duration of effect on withdrawal threshold,[1]; intrathecal 100 nmol in 10 μl,up to 8 hr
same,time to normal withdrawal threshold,[1]; intrathecal 100 nmol in 10 μl,about an hour after injection
same,effect on paw-withdrawal threshold,"[1]; intrathecal 100 nmol in 10 μl in allodynic rats, day 7 after injury, up to 8 hr",raised the withdrawal threshold to normal values
same,effect on tactile allodynia,"[1]; intrathecal 100 nmol, day 7 after injury",suppressed the tactile allodynia
same,duration of suppressive effect,[2]; Example 9: SCP-1 alone,at least 4 hr
same,effect on tactile allodynia,[2]; intrathecal 1 nmol,did not affect tactile allodynia
same,effect on tactile allodynia,[2]; intrathecal 10 nmol,did not affect tactile allodynia
same,effect on tactile allodynia,[2]; intrathecal 50 nmol,only a mild effect
same,withdrawal threshold at 2 hr post-injection,[2]; intrathecal 100 nmol,27.3 ± 2.5 g
same,withdrawal threshold at 90 min after injection,"[2]; intrathecal 100 nmol, basal threshold 4.6±1.1 g",28 ± 2.4 g
same,effect on tactile allodynia,[2]; intrathecal 200 nmol,suppressed the tactile allodynia
same,effect on tactile allodynia (paw withdrawal threshold),"[2]; pre-emptive intrathecal 100 nmol in 10 μl saline immediately prior to CCI, 0, 3, 7 days",prevented
same,duration of prevention of tactile allodynia,[2]; pre-emptive intrathecal 100 nmol prior to CCI,up to 7 days
same,effect on paw withdrawal threshold at 7 days,"[2]; pre-emptive intrathecal 100 nmol prior to CCI, 7 days after injury",remained strong
